We go through 17 compounds from ChEMBL document CHEMBL1143861, “Chemical modulators of heat shock protein 70 (Hsp70) by sequential, microwave-accelerated reactions on solid phase” (Bioorg Med Chem Lett, 2008).

Assay [1] can be described thus: Activity against bovine Hsp70 ATPase activity. Details: species or system Bos taurus.
Assay [2] is described as follows: Activity against Escherichia coli DnaK ATPase activity.
Assay [3] is described as follows: Inhibition of Escherichia coli DnaK ATPase activity.
Assay [4] is described as follows: Inhibition of bovine Hsp70 ATPase activity. Details: species or system Bos taurus.
Assay [5] is described as follows: Activation of bovine Hsp70 ATPase activity. Set-up: species or system Bos taurus.
The subject of the next assay is Escherichia coli. As to the kind of experiment: (§1) Activation of Escherichia coli DnaK ATPase activity.
The nature of assay [6]: as §1.

SMILES strings stand for the structures. The source made the active and inactive calls. The calls are words filed in the database; no cut-off is given here. Bounds are passed on as bounds.

The EC50 is the midpoint of the concentration-response curve. The low end stands for higher potency in that assay, the high end for lower potency in that assay. For the compound `CCOC(=O)C1=C(C)N(CCCC(=O)N[C@H](CC(=O)N[C@H](CC(=O)NCCC(=O)O)CC(C)C)CC(C)C)C(=O)NC1c1ccc(Br)cc1` (some centres undefined), the EC50 in assay [1] and in assay [2] was greater than 400 µM in each case.
In the case of `CCOC(=O)C1=C(C)N(CCCC(=O)N[C@H](CC(=O)NCCC(=O)O)CC(C)C)C(=O)NC1c1ccc(Br)cc1` (some centres undefined), the EC50 in assay [1] and in assay [2] was greater than 400 µM in each case.
With `CCOC(=O)C1=C(C)N(CCCC(=O)N[C@H](CC(=O)NCCC(=O)O)C(C)C)C(=O)NC1c1ccc(Br)cc1` (some centres undefined), the EC50 in assay [1] and in assay [2] was greater than 400 µM throughout.
On to `CCOC(=O)C1=C(C)N(CCCC(=O)NCCC(=O)NCCC(=O)O)C(=O)NC1c1ccc(Br)cc1` (centres undefined), for which the EC50 in assay [1] and in assay [2] was greater than 400 µM each time.
For `CCOC(=O)C1=C(C)N(CCCC(=O)N[C@@H](CCCCN)CC(=O)NCCC(=O)O)C(=O)NC1c1ccc(Br)cc1` (some centres undefined), the EC50 in assay [1] and in assay [2] was greater than 400 µM throughout.
For the compound `CCOC(=O)C1=C(C)N(CCCC(=O)N[C@@H](CCc2ccccc2)CC(=O)N[C@@H](CCCCN)CC(=O)NCCC(=O)O)C(=O)NC1c1ccc(Br)cc1` (some centres undefined), the results for the EC50 in assay [3] and in assay [4] were 325 µM and 265 µM, respectively.
`CCOC(=O)C1=C(C)N(CCCC(=O)N[C@H](CC(=O)N[C@H](CC(=O)NCCC(=O)O)Cc2cccc3ccccc23)C(C)C)C(=O)NC1c1ccc(Br)cc1` (some centres undefined) had a concentration giving a half-maximal response (EC50) in assay [5] of 255 µM. For the same compound, in the assay on Escherichia coli, the result was inactive.
`CCOC(=O)C1=C(C)N(CCCC(=O)N[C@H](CC(=O)NCCC(=O)O)c2ccccc2)C(=O)NC1c1ccc(Br)cc1` (some centres undefined): the half-maximal effective concentration (EC50) in assay [1] and in assay [2] was greater than 400 µM in each case.
With `CCOC(=O)C1=C(C)N(CCCC(=O)N[C@H](CC(=O)N[C@H](CC(=O)NCCC(=O)O)c2ccccc2)CC(C)C)C(=O)NC1c1ccc(Br)cc1` (some centres undefined), the concentration giving a half-maximal response (EC50) in assay [1] and in assay [2] was greater than 400 µM each time.
Regarding `CCOC(=O)C1=C(C)N(CCCC(=O)N[C@H](CC(=O)NCCC(=O)O)[C@@H](C)CC)C(=O)NC1c1ccc(Br)cc1` (some centres undefined), the EC50 in assay [1] and in assay [2] was greater than 400 µM throughout.
In the case of `CCOC(=O)C1=C(C)N(CCCC(=O)O)C(=O)NC1c1ccc(Br)cc1` (centres undefined), the EC50 in assay [1] and in assay [2] was greater than 400 µM in each case.
Take `CCOC(=O)C1=C(C)N(CCCC(=O)NCCC(=O)NCCC(=O)NCCC(=O)O)C(=O)NC1c1ccc(Br)cc1` (centres undefined): the EC50 in assay [1] and in assay [2] was greater than 400 µM each time.
In turn, `CCOC(=O)C1=C(C)N(CCCC(=O)OC)C(=O)NC1c1ccc(Br)cc1` (centres undefined) returned an EC50 in assay [5] of 213 µM. Further, in the assay on Escherichia coli, the result was inactive.
With `CCOC(=O)C1=C(C)N(CCCC(=O)N[C@H](CC(=O)NCCC(=O)O)Cc2cccc3ccccc23)C(=O)NC1c1ccc(Br)cc1` (some centres undefined), the EC50 in assay [5] is 179 µM; in assay [6], 190 µM.
Compound `CCOC(=O)C1=C(C)N(CCCC(=O)N[C@@H](CCCCN)CC(=O)N[C@H](CC(=O)NCCC(=O)O)[C@@H](C)CC)C(=O)NC1c1ccc(Br)cc1` (some centres undefined) showed an EC50 in assay [5] of 352 µM. Also, in the assay with Escherichia coli, the outcome was inactive.
On the same counts, the results for `CCOC(=O)C1=C(C)N(CCCC(=O)N[C@@H](CCc2ccccc2)CC(=O)NCCC(=O)O)C(=O)NC1c1ccc(Br)cc1` (some centres undefined) are 190 µM and “inactive”.
In the case of `CCOC(=O)C1=C(C)N(CCCC(=O)N[C@@H](CCCCN)CC(=O)N[C@@H](CCc2ccccc2)CC(=O)NCCC(=O)O)C(=O)NC1c1ccc(Br)cc1` (some centres undefined), the EC50 stood at 107 µM in assay [3] and 105 µM in assay [4].
